Series [1] deals with T1, Adenosine receptor A3 (Homo sapiens, UniProt P0DMS8).
T1 sequence (P0DMS8 whole entry): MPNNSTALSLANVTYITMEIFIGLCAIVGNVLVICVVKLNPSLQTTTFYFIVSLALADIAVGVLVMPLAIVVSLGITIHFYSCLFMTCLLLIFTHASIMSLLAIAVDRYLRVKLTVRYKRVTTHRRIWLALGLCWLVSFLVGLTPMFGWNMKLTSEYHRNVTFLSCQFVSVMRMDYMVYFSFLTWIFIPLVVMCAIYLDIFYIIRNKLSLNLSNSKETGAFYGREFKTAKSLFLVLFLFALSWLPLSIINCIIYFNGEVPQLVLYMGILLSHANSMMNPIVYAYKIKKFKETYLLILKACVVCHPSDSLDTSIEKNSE
Put plainly: Binding affinity to human A3 adenosine receptor assessed as inhibition constant.

Series [2] is described as follows: Inhibition of human PDE5 derived from platelets by scintillation counter analysis.
Series [3] can be described thus: Aqueous solubility of compound. In kind it is physicochemical.
Series [4] in a line: Inhibition of PDE2 derived from bovine heart by scintillation counter analysis. Set-up: species or system Bos taurus.
The species entered for series [5] is Homo sapiens. Put plainly: Selectivity index, ratio of Ki for human A2A receptor to Ki for human A3 receptor assessed as fold change.
For series [6], the species on record is Homo sapiens. Kind of series: Selectivity index, ratio of Ki for human A1 receptor to Ki for human A3 receptor assessed as fold change.
For series [7], the species on record is Homo sapiens. Put plainly: Selectivity index, ratio of Ki for human A2 receptor to Ki for A1 receptor assessed as fold change.
Series [8] is filed under the species Homo sapiens. Kind of series: Selectivity index, ratio of antagonist activity at A1 receptor to antagonist activity at A2 receptor.
Series [9] deals with T2, Guanine deaminase (Homo sapiens, UniProt Q9Y2T3).
T2 sequence (Q9Y2T3 whole entry): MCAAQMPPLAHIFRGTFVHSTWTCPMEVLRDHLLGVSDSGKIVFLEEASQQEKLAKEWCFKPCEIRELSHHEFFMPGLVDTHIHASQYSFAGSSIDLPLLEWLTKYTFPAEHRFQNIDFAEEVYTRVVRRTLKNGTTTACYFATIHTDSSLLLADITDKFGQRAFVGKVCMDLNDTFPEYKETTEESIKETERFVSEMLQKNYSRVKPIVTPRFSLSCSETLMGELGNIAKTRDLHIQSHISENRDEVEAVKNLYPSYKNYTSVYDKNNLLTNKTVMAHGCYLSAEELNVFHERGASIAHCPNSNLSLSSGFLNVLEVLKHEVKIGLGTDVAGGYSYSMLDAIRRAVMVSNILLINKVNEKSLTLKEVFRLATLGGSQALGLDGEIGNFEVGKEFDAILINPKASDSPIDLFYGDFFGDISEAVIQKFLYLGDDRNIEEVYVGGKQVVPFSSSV
Put plainly: Inhibition of guanine deaminase (unknown origin).

Series [10] is described as follows: Inhibition of bile export protein (unknown origin). Set-up: species or system Homo sapiens.
Series [11] addresses Nuclear receptor subfamily 2 group E member 1 (Homo sapiens, UniProt Q9Y466). Kind of series: Inhibition of tlx (unknown origin).
In series [12] the target is T3, Palmitoleoyl-protein carboxylesterase NOTUM (Homo sapiens, UniProt Q6P988).
T3 sequence (Q6P988 whole entry): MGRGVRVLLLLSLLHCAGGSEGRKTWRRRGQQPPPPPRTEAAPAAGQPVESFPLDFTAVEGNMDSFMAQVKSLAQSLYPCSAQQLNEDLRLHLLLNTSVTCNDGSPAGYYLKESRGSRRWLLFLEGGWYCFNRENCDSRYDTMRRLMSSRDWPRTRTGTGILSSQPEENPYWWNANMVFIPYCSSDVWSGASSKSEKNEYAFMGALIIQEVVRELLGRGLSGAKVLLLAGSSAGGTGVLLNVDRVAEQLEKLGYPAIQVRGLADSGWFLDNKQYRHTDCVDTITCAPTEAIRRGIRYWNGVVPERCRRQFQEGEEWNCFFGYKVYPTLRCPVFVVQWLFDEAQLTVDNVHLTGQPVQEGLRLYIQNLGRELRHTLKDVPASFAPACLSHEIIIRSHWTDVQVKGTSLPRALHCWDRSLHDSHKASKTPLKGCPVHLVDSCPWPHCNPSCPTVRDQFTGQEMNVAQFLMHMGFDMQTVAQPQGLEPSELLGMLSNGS
Kind of series: Inhibition of notum (unknown origin).

The nature of series [13]: Inhibition of PI3-kinase (unknown origin). Also noted: species or system Homo sapiens.
Series [14] can be described thus: Inhibition of ryanodine receptor (unknown origin). Set-up: species or system Homo sapiens.
The nature of series [15]: Inhibition of phosphodiesterase (unknown origin). Set-up: species or system Homo sapiens.
Series [16] can be described thus: Inhibition of human glycogen phosphorylase.
For series [17], the target named is GABA-A receptor; anion channel. Kind of series: Inhibition of GABAA receptors (unknown origin). The class given is protein-complex assay, Homo sapiens.
Series [18] can be described thus: Inhibition of Glycogen phosphorylase (unknown origin). Also noted: species or system Homo sapiens.
Series [19] in a line: Inhibition of human glycogen phosphorylase in presence of 0.2 mM of AMP.

Nuclear receptor subfamily 2 group E member 1, sequence (Q9Y466 whole entry): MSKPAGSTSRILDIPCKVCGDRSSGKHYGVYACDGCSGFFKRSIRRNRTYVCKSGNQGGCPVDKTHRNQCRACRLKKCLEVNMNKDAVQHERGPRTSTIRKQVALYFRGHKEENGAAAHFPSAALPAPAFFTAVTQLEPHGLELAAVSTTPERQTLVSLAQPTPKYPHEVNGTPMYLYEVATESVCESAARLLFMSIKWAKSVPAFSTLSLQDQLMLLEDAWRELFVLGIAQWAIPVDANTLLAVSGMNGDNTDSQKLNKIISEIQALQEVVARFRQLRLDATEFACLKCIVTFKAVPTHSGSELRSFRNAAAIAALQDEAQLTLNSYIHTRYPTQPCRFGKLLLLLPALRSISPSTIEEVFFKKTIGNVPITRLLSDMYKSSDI

Consider `CC[C@@H]1CN2C(=O)N(C)c3nc(-c4cc(Cl)cc(Cl)c4Cl)[nH]c3C2=N1`, for which the Ki in [1] was found to be 0.000433 µM.
Regarding `CCCc1nn(C)c2c(=O)[nH]c(-c3cc(S(=O)(=O)N4CCN(C)CC4)ccc3OCC)nc12`, the half-inhibitory concentration (IC50) in series [2] was determined as 0.01 µM.
`CCCn1c(=O)c2c(nc(/C=C/c3ccc(OC)c(OC)c3)n2C)n(CCC)c1=O` had a solubility in [3] of less than 10 µg/mL.
Consider `COc1ccc(Cc2nc(O)c3c(C)nc([C@@H](CCCc4ccccc4)[C@@H](C)O)n3n2)cc1OC`, for which the IC50 in series [4] is 0.0047 µM.
The compound `Cn1c(=O)c2[nH]c(-c3ccc(S(=O)(=O)O)cc3)nc2n(C)c1=O` showed a solubility in series [3] of more than 20 µM.
On to `CCCCn1c(=O)c2c(ncn2[C@@H]2O[C@H](C(=O)NC)[C@@H](O)[C@H]2O)n(CCCC)c1=O`, for which the Ratio Ki was more than 400 in series [5] and 160 in series [6].
With `CCCn1c(=O)c2nc(-c3ccc(OCC(N)=O)cc3O)[nH]c2n(CCC)c1=O`, the Ratio Ki in series [7] was 190.
The same measure, in the same setting: to `CCCn1c(=O)c2nc(C3CC4CC3C3OC43)[nH]c2n(CCC)c1=O` (stereo unspecified) belongs 400.
As to `CCCn1cnc2c1c(=O)n(C)c(=O)n2C`, the Ratio in series [8] was 10.
For the compound `Cn1c(=O)c2c(ncn2C)n(C)c1=O` [CAFFEINE], the affinity in series [9], expressed as Ki, was 10 µM. In addition, the pIC50 was 4 in [10], “<= 4.1” in series [13] and less than 4 in series [15]. Moreover, the IC50 was 7.94 µM in [11], 100 µM in series [12], 92 µM in series [16] and 360 µM in series [19]. For the same compound, the pEC50 in [14] is less than 4. In addition, the pKi in series [17] was less than 4; in series [18] it was 4.

As a reminder, the Ki is a measure of affinity in units of concentration, obtained from inhibition or displacement. For orientation: IC50 means the concentration that inhibits the measured activity by half. As a reminder, the solubility is the concentration that dissolves in the medium under given conditions. A higher solubility goes with a readily soluble substance. The pIC50 is the negative decadic logarithm of the IC50, by convention in mol/L. A lower pIC50 goes with a high IC50. By pEC50 is commonly meant −log10 of the EC50, conventionally taken in molar units. A lower pEC50 goes with a high EC50. In general, pKi refers to the Ki on a negative log10 scale, so that one unit is a factor of ten. Low readings indicate a high Ki, high ones a low Ki.

(Values after ChEMBL document CHEMBL5223081 (J Med Chem, 2021).)
